Data set [1] has as its target C. jejuni α-2,3-sialyltransferase (CST-06, MBP-fusion protein of the full length sialyltransferase) (Campylobacter jejuni, UniProt Q9RGF1). The data set is described as follows: Acceptor specificity and kinetics on p-nitrophenyl-glycosides with malE-cst (CST-06). In kind it is biochemical. The note with it: p-NP-glycoside acceptor at 2.0 mM; for Relative Activity (CST-06): acceptor with lowest activity given the value 1. The procedure:
(§1) Kinetic analysis of acceptors was performed at 37° C. with p-NP-glycosides at concentrations of 0.1 to 10 mM, with CMP-Neu5Ac at 1 mM. Kinetic analysis of the donor CMP-Neu5Ac was performed at a concentration of 20 μM to 1000 μM with p-NP-lactose at 5 mM. Care was taken to ensure that the level of acceptor conversion was between about 5-10% for acceptor kinetic assays.
(§2) For donor kinetics the amount of conversion of CMP-Neu5Ac was calculated from the amount of product formed compared to an internal standard of 10 μM p-NP-glucose added after the reaction. This peak was well resolved from the acceptor and product peaks. The reactions with p-NP-glycosides were stopped by addition of an equal volume of 2% SDS, 20 mM EDTA and heated to 75° C. for 3 minutes and then diluted 1:1 (or maximally 1:10 for 10 mM concentrations) with water. The samples were then analyzed by CE using a diode array detector scanning between 260 and 300 nm, with the peaks at detected at 290 nm. The peaks from the electropherograms were analyzed using manual peak integration with the P/ACE Station™ software. For rapid detection of enzyme activity, samples from the transferase reaction mixtures were examined by thin layer chromatography on silica-60 TLC plates (E. Merck) as described in Gilbert et al. (1996) supra.
(§3) The acceptor specificity of the C. jejuni α-2,3-sialyltransferase was examined with a panel of p-NP-glycosides having both β1→4 and β1→3 linkages. The kinetic data for all of the acceptors was collected using the MBP-fusion protein of the full length sialyltransferase. The data for the acceptor specificity were collected first by assaying the enzyme at an acceptor concentration of 2.0 mM. The acceptor with the lowest activity was given the value of 1 for the comparison of activity. These reaction conditions were used in a comparison (Table 3) of the C. jejuni enzyme with the Lst protein from N. meningitidis (Gilbert et al. (1996) J. Biol. Chem. 271: 28271-28276). The N. meningitidis Lst protein was also a MBP protein fusion which was soluble and purified by affinity chromatography.

The target of data set [2] is T1, Lst protein from N. meningitidis (NST-33, MBP protein fusion) (Neisseria meningitidis serogroup B, UniProt P72097).
T1 construct: made in house
T1 sequence (P72097 whole entry, the tested form may be a part): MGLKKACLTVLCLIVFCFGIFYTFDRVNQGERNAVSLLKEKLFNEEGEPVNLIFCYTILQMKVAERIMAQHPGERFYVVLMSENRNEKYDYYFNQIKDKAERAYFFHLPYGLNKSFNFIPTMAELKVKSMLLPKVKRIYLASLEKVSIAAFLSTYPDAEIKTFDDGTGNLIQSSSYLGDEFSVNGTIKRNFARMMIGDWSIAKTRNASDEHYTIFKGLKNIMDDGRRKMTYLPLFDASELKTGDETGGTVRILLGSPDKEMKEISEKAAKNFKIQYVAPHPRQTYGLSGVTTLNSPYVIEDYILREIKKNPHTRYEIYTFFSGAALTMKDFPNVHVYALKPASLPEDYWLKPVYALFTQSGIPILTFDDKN
The format is biochemical. Conditions: p-NP-glycoside acceptor at 2.0 mM; for Relative Activity (NST-33): acceptor with lowest activity given the value 1. The procedure:
as §2, §3

The test system of data set [3] is CC(=O)N[C@H]1[C@@H](Oc2ccc([N+](=O)[O-])cc2)O[C@H](CO)[C@H](O)[C@@H]1O[C@@H]1O[C@H](CO)[C@H](O)[C@H](O)[C@H]1O. The data set is described as follows: Acceptor specificity and kinetics on p-nitrophenyl-glycosides with malE-cst (CST-06). The format is biochemical, Campylobacter jejuni. Conditions: other: 37° C., p-NP-glycosides 0.1 to 10 mM, CMP-Neu5Ac 1 mM. The procedure:
as §1, §2, §3

Data set [4] concerns [H][C@@]1(O[C@H]2[C@H](O)[C@@H](O)[C@H](Oc3ccc([N+](=O)[O-])cc3)O[C@@H]2CO)O[C@H](CO)[C@H](O)[C@H](O)[C@H]1O. The description is as above. The format is biochemical, Campylobacter jejuni. The note with it: other: 37° C., p-NP-glycosides 0.1 to 10 mM, CMP-Neu5Ac 1 mM. The method, then:
as §1, §2, §3

Data set [5] relates to CC(=O)N[C@H]1[C@H](Oc2ccc([N+](=O)[O-])cc2)O[C@H](CO)[C@@H](O[C@@H]2O[C@H](CO)[C@H](O)[C@H](O)[C@H]2O)[C@@H]1O. The data set is described as above. The format is biochemical, Campylobacter jejuni. The note with it: other: 37° C., p-NP-glycosides 0.1 to 10 mM, CMP-Neu5Ac 1 mM. The method, then: as §1, §2, §3

The values that follow come from patent publication US7259239B2, “Lipopolysaccharide α-2,3 sialyltransferase of campylobacter jejuni and its uses” (priority 1998, dated 2007).

C. jejuni α-2,3-sialyltransferase (CST-06, MBP-fusion protein of the full length sialyltransferase), sequence (Q9RGF1 entry or part of it): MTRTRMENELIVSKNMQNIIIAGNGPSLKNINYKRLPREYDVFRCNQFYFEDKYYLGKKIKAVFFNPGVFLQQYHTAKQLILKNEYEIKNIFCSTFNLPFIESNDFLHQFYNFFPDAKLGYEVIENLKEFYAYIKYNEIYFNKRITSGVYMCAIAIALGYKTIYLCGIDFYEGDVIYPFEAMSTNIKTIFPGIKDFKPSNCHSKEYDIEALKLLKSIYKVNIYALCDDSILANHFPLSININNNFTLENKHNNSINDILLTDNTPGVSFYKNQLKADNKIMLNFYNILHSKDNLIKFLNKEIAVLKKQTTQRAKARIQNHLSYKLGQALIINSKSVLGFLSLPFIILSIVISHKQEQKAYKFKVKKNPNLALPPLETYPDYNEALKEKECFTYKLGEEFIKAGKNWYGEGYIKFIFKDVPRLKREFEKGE

Regarding `O=[N+]([O-])c1ccc(OC2OC(CO)C(OC3OC(CO)C(OC4OC(CO)C(O)C(O)C4O)C(O)C3O)C(O)C2O)cc1` (stereo not drawn) [Gal-α-1,4-Gal-β-Glc], the “Relative Activity (CST-06)” value in data set [1] was 0. The “Relative Activity (NST-33)” value in data set [2] turned out to be 5.6.

For the molecule `O=[N+]([O-])c1ccc(O[C@@H]2O[C@H](CO)[C@@H](O[C@@H]3O[C@H](CO)[C@H](O)[C@H](O)[C@H]3O)[C@H](O)[C@H]2O)cc1` [Gal-β-1,4-Glc], in data set [1], the “Enzyme activity mU/mg (CST-06)” value is “mU/mg = 420” and the “Relative Activity (CST-06)” value is 4.9. Also, in data set [2], the “Enzyme activity mU/mg (NST-33)” value is on record as “mU/mg = 30” and the “Relative Activity (NST-33)” value turned out to be 7.8.

As to `O=[N+]([O-])c1ccc(O[C@@H]2O[C@H](CO)[C@H](O)[C@H](O)[C@H]2O)cc1` [Gal-β], the “Relative Activity (CST-06)” value in data set [1] stood at 1. In addition, the “Relative Activity (NST-33)” value in data set [2] is 1.2.

With “C. jejuni α-2,3-sialyltransferase (CST-06, MBP-fusion protein of the full length sialyltransferase) (Campylobacter jejuni)”, the Km in data set [3] was 2.7 mM ± 0.1 mM; in data set [4] it was 1.3 mM ± 0.12 mM; in data set [5], 0.8 mM ± 0.2 mM.
